Source: patent publication EP1247803A2, “Indolinone compounds suitable for modulation of protein kinases” (Sugen, Inc., priority 1996, dated 1998)

How the values were obtained:
EGFR = target: T1, EGFR (Homo sapiens, UniProt P00533); test: EGFR ELISA assay (in vitro kinase activity, EGFR captured from A431 cell lysate); type: biochemical; set-up: concentration or dose not given beside the values
T1 construct: Add 7 ug A431 cell lysate per well (EGFR source); endogenous in cells; host or cells: A431
Method in brief: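 Receptor autophosphorylation was read by ELISA: anti-phosphotyrosine serum and an HRP-linked secondary with ABTS substrate, absorbance at 410 nm (reference 630 nm). The reaction ran 5 min with 3 µM ATP and 5 mM MnCl2 and was quenched by 20 mM EDTA. Compounds were first incubated 30 min with antibody-captured EGFR from A431 cell lysate.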

MET = MET biochemical kinase assay; set-up: species or system human; concentration or dose not given beside the values
Method in brief: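 Lysate-derived MET, or chimeric receptors, is immobilised on plates through an antibody to the human MET cytoplasmic region. Compounds are added along with kinase buffer supplying ATP and divalent metal ions, and receptor autophosphorylation is quantified by anti-phosphotyrosine ELISA.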

PDGF-R = PDGF-R (Homo sapiens, UniProt P09619); test: PDGF-R ELISA; type: cell-based
Source text: A PDGF-R ELISA is described in International Patent Publication No. WO 96/40116, published December 19, 1996 by Tang et al.

T1 sequence (P00533 25-1210): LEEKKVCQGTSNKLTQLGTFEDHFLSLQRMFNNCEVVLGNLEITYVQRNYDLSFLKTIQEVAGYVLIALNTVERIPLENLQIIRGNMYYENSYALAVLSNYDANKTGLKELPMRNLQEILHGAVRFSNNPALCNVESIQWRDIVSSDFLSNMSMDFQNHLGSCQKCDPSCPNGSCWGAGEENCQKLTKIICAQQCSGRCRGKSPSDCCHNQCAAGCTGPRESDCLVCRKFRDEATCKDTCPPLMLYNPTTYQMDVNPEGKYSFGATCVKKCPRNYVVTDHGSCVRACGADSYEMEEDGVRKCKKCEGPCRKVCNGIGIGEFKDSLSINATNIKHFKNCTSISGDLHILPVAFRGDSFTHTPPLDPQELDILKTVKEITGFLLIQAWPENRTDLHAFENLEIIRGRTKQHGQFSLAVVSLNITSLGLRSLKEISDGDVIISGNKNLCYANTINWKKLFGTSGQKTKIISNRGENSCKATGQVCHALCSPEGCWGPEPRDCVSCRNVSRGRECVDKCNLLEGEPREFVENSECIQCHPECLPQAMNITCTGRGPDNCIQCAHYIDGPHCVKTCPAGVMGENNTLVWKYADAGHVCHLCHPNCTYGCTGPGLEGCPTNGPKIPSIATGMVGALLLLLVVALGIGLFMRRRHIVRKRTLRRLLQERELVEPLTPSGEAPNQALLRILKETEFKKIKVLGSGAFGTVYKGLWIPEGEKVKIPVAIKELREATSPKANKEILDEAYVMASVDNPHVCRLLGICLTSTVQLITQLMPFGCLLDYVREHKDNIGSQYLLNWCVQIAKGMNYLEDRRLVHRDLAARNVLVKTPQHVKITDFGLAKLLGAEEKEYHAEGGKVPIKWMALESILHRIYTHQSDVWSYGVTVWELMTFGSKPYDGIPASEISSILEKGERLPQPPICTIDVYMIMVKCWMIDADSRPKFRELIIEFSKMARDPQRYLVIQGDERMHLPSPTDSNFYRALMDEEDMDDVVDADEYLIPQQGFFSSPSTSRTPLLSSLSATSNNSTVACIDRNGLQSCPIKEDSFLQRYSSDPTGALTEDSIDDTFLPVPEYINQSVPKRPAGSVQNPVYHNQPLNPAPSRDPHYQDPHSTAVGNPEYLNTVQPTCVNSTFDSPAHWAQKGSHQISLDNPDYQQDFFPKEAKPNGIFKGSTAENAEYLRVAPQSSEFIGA
Sequence of PDGF-R (P09619 33-1106, species assumed): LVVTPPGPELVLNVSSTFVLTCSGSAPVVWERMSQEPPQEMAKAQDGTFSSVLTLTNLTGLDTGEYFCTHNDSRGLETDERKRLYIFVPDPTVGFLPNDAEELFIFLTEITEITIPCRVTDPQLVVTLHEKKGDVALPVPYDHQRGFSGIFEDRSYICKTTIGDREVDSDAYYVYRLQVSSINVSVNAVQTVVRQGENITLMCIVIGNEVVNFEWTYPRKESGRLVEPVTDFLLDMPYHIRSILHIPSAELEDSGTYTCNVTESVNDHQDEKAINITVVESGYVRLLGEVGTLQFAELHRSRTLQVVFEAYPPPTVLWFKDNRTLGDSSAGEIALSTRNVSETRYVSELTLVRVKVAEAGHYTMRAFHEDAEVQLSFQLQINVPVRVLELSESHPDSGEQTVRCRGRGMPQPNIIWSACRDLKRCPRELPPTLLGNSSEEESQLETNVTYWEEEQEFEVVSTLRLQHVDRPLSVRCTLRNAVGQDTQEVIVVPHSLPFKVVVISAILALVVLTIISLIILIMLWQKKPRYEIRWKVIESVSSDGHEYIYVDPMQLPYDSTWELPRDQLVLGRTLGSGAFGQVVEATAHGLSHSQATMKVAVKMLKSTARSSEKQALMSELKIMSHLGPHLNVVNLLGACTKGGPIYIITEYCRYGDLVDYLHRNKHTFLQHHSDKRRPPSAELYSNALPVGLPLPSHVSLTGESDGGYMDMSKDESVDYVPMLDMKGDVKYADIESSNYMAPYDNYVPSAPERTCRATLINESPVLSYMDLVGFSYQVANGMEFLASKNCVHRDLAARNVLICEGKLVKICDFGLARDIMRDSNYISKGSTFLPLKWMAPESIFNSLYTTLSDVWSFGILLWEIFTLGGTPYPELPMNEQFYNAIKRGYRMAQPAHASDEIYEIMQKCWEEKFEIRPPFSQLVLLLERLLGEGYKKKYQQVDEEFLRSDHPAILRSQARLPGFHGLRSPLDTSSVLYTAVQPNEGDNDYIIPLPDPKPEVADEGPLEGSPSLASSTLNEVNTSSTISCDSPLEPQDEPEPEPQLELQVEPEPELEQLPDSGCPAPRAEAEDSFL

SMILES	Biochem EGFR %Inhibition (EGFR)	Met Kinase % Inhibition (MET)	PDGF Kinase %Inhibition (PDGF-R)
CNS(=O)(=O)c1ccc2c(c1)C(=Cc1ccc(OC)cc1O)C(=O)N2 [10723/D09]	-3.8%	62.6%	21.4%
O=C1Nc2ccc(S(=O)(=O)Nc3ccc(C(F)(F)F)cc3)cc2C1=Cc1cccc(Br)c1 [10723/E10]	-7.9%	59.5%	44.3%
CNS(=O)(=O)c1ccc2c(c1)C(=Cc1cccc(OC)c1O)C(=O)N2 [10723/D03]	33.5%	69.4%	8.2%
CNS(=O)(=O)c1ccc2c(c1)C(=Cc1ccc(O)c(C)c1)C(=O)N2 [10723/D06]	-7.4%	60.0%	6.2%
O=C1Nc2ccc(I)cc2C1=Cc1cc(O)c(O)c(Br)c1 [10723/B04]	5.1%	90.6%	40.1%
COc1cccc(C=C2C(=O)Nc3ccc(Br)c(C)c32)c1O [10723/C03]	5.9%	88.8%	42.9%
Cc1c(Br)ccc2c1C(=Cc1cccc(Br)c1)C(=O)N2 [10723/C10]	-7.2%	43.8%	25.6%
COc1ccc(C=C2C(=O)Nc3ccc(I)cc32)c(O)c1 [10723/B09]	-12.0%	57.7%	27.6%
COc1cccc(C=C2C(=O)Nc3c(Br)cc(Br)cc32)c1O [10723/A03]	38.5%	76.5%	11.7%
CC(=O)Oc1ccc(C=C2C(=O)Nc3ccc(S(=O)(=O)N4CCOCC4)cc32)cc1OC(C)=O [10723/F05]	-3.8%	45.6%	-7.7%
O=C1Nc2c(Br)cc(Br)cc2C1=Cc1ccc(O)cc1O [10723/A08]	-2.1%	77.3%	29.7%
CCOc1ccccc1C=C1C(=O)Nc2ccc(S(=O)(=O)Nc3ccc(C(F)(F)F)cc3)cc21 [10717/E02]	17.2%	24.0%	
O=C1Nc2ccc(S(=O)(=O)Nc3ccc(C(F)(F)F)cc3)cc2C1=Cc1ccc(O)c(O)c1O [10723/E02]	91.0%	97.9%	46.4%
O=C1Nc2c(Br)cc(Br)cc2C1=Cc1cccc(Br)c1 [10723/A10]	-24.8%	62.1%	34.6%
CC(C)(C)c1cc(C=C2C(=O)Nc3ccc(I)cc32)c(O)c(C(C)(C)C)c1 [10723/B11]	-26.0%	62.6%	22.8%
O=C1Nc2c(Br)cc(Br)cc2C1=Cc1cc(O)c(O)c(Br)c1 [10723/A04]	30.8%	97.9%	13.1%
O=C1Nc2ccc(CCCl)cc2C1=Cc1ccc(C(F)(F)F)cc1 [10722/G11]	-39.4%	35.3%	0.3%
Cn1cccc1C=C1C(=O)Nc2ccc(S(=O)(=O)Nc3ccc(C(F)(F)F)cc3)cc21 [10717/E04]	-28.3%	29.4%	
CNS(=O)(=O)c1ccc2c(c1)C(=Cc1ccc(O)cc1O)C(=O)N2 [10723/D08]	4.9%	53.5%	31.1%
CC(C)(C)c1cc(C=C2C(=O)Nc3c(Br)cc(Br)cc32)c(O)c(C(C)(C)C)c1 [10723/A11]	-4.0%	60.0%	41.5%
COc1ccc(C=C2C(=O)Nc3ccc(S(=O)(=O)Nc4ccc(C(F)(F)F)cc4)cc32)c(O)c1 [10723/E09]	29.1%	91.7%	22.1%
COc1cccc(C=C2C(=O)Nc3ccc(S(=O)(=O)Nc4ccc(C(F)(F)F)cc4)cc32)c1O [10723/E03]	8.3%	76.8%	47.1%
Cc1c(Br)ccc2c1C(=Cc1ccccc1Br)C(=O)N2 [10723/C07]	-4.0%	44.3%	27.6%
Cc1c(Br)ccc2c1C(=Cc1ccc(O)c(O)c1O)C(=O)N2 [10723/C02]	73.6%	100.6%	39.4%
COc1cccc(C=C2C(=O)Nc3ccc(CCCl)cc32)c1O [10723/G03]	18.5%	74.7%	6.2%

SMILES	Biochem EGFR %Inhibition (EGFR)	Met Kinase % Inhibition (MET)	PDGF Kinase %Inhibition (PDGF-R)
COc1ccc(C=C2C(=O)Nc3ccc(Br)c(C)c32)c(O)c1 [10723/C09]	62.7%	84.6%	62.3%
O=C1Nc2ccc(CCCl)cc2C1=Cc1csc([N+](=O)[O-])c1 [10722/G09]	-5.9%	51.0%	0.9%
O=C1Nc2ccc(I)cc2C1=Cc1ccc(O)c(O)c1O [10723/B02]	91.0%	100.3%	29.0%
CC(=O)Oc1ccc(C=C2C(=O)Nc3ccc(I)cc32)cc1OC(C)=O [10723/B05]	36.4%	85.1%	15.2%
Cc1cc(C=C2C(=O)Nc3ccc(CCCl)cc32)ccc1O [10723/G06]	-26.7%	64.5%	-0.8%
O=C1Nc2ccc(S(=O)(=O)Nc3ccc(C(F)(F)F)cc3)cc2C1=Cc1cccs1 [10717/E03]	11.7%	52.2%	
O=C1Nc2ccc(S(=O)(=O)N3CCOCC3)cc2C1=Cc1ccc(O)c(O)c1O [10723/F02]	70.4%	99.0%	1.3%
Cc1cc(C=C2C(=O)Nc3c(Br)cc(Br)cc32)ccc1O [10723/A06]	20.1%	79.1%	43.6%
Cc1ccc(C=C2C(=O)Nc3ccc(S(=O)(=O)Nc4ccc(C(F)(F)F)cc4)cc32)s1 [10717/E07]	-7.8%	41.0%	
Cc1cc(C=C2C(=O)Nc3ccc(CCCl)cc32)cc(C)c1O [10722/G07]	-32.5%	41.2%	-3.7%
CNS(=O)(=O)c1ccc2c(c1)C(=Cc1[nH]c(C)c(Br)c1Br)C(=O)N2 [10717/D11]	59.1%	55.3%	
CC(C)(C)c1cc(C=C2C(=O)Nc3ccc(CCCl)cc32)cc([N+](=O)[O-])c1O [10722/G02]	27.3%	43.0%	14.6%
O=C1Nc2ccc(S(=O)(=O)Nc3ccc(C(F)(F)F)cc3)cc2C1=Cc1ccc(O)cc1O [10723/E08]	52.6%	89.3%	26.3%
O=C1Nc2c(Br)cc(Br)cc2C1=Cc1ccccc1Br [10723/A07]	3.9%	63.2%	22.1%
COc1cccc(C=C2C(=O)Nc3ccc(I)cc32)c1O [10723/B03]	-5.0%	82.5%	14.5%
Cc1c(Br)ccc2c1C(=Cc1ccc(O)cc1O)C(=O)N2 [10723/C08]	45.0%	83.0%	29.0%
COc1cccc(C=C2C(=O)Nc3ccc(S(=O)(=O)N4CCOCC4)cc32)c1O [10723/F03]	9.3%	78.3%	1.3%
Cc1cc(C=C2C(=O)Nc3ccc(S(=O)(=O)Nc4ccc(C(F)(F)F)cc4)cc32)ccc1O [10723/E06]	11.5%	74.4%	18.6%
CC(=O)Oc1ccc(C=C2C(=O)Nc3ccc(S(=O)(=O)Nc4ccc(C(F)(F)F)cc4)cc32)cc1OC(C)=O [10723/E05]	-15.6%	63.7%	-4.9%
O=C1Nc2ccc(I)cc2C1=Cc1ccccc1Br [10723/B07]	28.8%	86.7%	24.9%
O=C1Nc2ccc(CCCl)cc2C1=Cc1c(O)cc(O)cc1O [10722/G03]	4.1%	52.2%	-3.7%
O=C1Nc2ccc(S(=O)(=O)Nc3ccc(C(F)(F)F)cc3)cc2C1=Cc1c[nH]c2ccccc12 [10717/E06]	-26.1%	24.8%	
O=C1Nc2ccc(S(=O)(=O)Nc3ccc(C(F)(F)F)cc3)cc2C1=Cc1ccc(Br)cc1 [10717/E08]	28.2%	51.7%	
O=C1Nc2ccc(S(=O)(=O)Nc3ccc(C(F)(F)F)cc3)cc2C1=Cc1ccc(F)cc1 [10717/E05]	22.4%	39.1%	
